Earlier results on two compounds are cited in US6740517B2, “Incubation method for obtaining solid culture of Zang Zhi, solid culture obtained therefrom, processed products and use thereof” (priority 2001, dated 2004).

The subject of data set [1] is lymphoma cells of a p-388 mouse.
Data set [2] relates to mouse with the acute hepatitis induced by CCl4.

For `C=C(CC[C@@H](C)[C@H]1CC[C@H]2C3=C(C(=O)C[C@]12C)[C@@]1(C)CCC(=O)[C@@H](C)[C@@H]1CC3=O)C(C)C(=O)O` (stereo partly drawn) [Zhankuic acid A], in data set [1], the “inhibition to the lymphoma cells of a p-388 mouse” value was “conspicuous inhibition”. In the data set on blood platelets, the “inhibition to agglutination of blood platelets” value is on record as “conspicuous inhibition”. On to 3,11-dioxo-8,23-dien-26-oic acid, for which the “GPT in the blood” value in data set [2] is recorded as “reduce GPT”.
